Laboratory results from ChEMBL document CHEMBL5365412, “Discovery of benzodiazepine derivatives as a new class of covalent inhibitors of SARS-CoV-2 main protease” (Bioorg Med Chem Lett, 2023).

How the values were obtained:
[1] = target: Replicase polyprotein 1ab (Severe acute respiratory syndrome coronavirus 2) (UniProt P0DTD1); test: Binding affinity to SARS-CoV-2 main protease assessed as change in melting temperature by DSF assay
[2] = target: Replicase polyprotein 1ab (Severe acute respiratory syndrome coronavirus 2, UniProt P0DTD1); test: Inhibition of SARS-CoV-2 main protease by FRET assay

Row | SMILES | ΔTm [1] | IC50 [2]
1 | CC1CC(=O)C2=C(C1)Nc1cc([N+](=O)[O-])ccc1N(C(=O)CCl)C2c1ccccc1 (stereo unspecified) | 3.16 °C | 3.36 µM
2 | CC1CC(=O)C2=C(C1)Nc1cc([N+](=O)[O-])ccc1N(C(=O)CCl)C2C1CCCCC1 (stereo unspecified) | 2.57 °C | 3.63 µM
3 | CC1C2=C(CCCC2=O)Nc2cc([N+](=O)[O-])ccc2N1C(=O)CCl (stereo unspecified) | 4.5 °C | 3.69 µM
4 | CC1(C)CC(=O)C2=C(C1)Nc1cc([N+](=O)[O-])ccc1N(C(=O)CCl)C2C1CCCC1 (stereo unspecified) | 3.53 °C | 9.12 µM
5 | Cc1ccc(C2C3=C(CC(C)(C)CC3=O)Nc3cc([N+](=O)[O-])ccc3N2C(=O)CCl)cc1 (stereo unspecified) | 3.27 °C | 3.94 µM
6 | CC1CC(=O)C2=C(C1)Nc1cc([N+](=O)[O-])ccc1N(C(=O)CCl)C2 (stereo unspecified) | 2.79 °C | 11.5 µM
7 | COc1ccc(C2C3=C(CCCC3=O)Nc3cc([N+](=O)[O-])ccc3N2C(=O)CCl)cc1 (stereo unspecified) | 4.55 °C | 2.05 µM
8 | Cc1ccc(C2C3=C(CC(C)CC3=O)Nc3cc([N+](=O)[O-])ccc3N2C(=O)CCl)cc1 (stereo unspecified) | 1.62 °C | 3.35 µM
9 | CC1(C)CC(=O)C2=C(C1)Nc1cc([N+](=O)[O-])ccc1N(C(=O)CCl)C2C1CCC1 (stereo unspecified) | 2.72 °C | 9.57 µM
10 | CC1(C)CC(=O)C2=C(C1)Nc1cc([N+](=O)[O-])ccc1N(C(=O)CCl)C2 | 1.85 °C | 24.4 µM
11 | COc1ccc(C2C3=C(CC(C)CC3=O)Nc3cc([N+](=O)[O-])ccc3N2C(=O)CCl)cc1 (stereo unspecified) | 3.13 °C | 4.45 µM
12 | O=C1CCCC2=C1C(C1CCC1)N(C(=O)CCl)c1ccc([N+](=O)[O-])cc1N2 (stereo unspecified) | 5.83 °C | 2.48 µM
13 | O=C1CCCC2=C1C(C1CCCCC1)N(C(=O)CCl)c1ccc([N+](=O)[O-])cc1N2 (stereo unspecified) | 7.14 °C | 1.59 µM
14 | CC1CC(=O)C2=C(C1)Nc1cc([N+](=O)[O-])ccc1N(C(=O)CCl)C2C (stereo unspecified) | 3.21 °C | 11 µM
15 | CC1CC(=O)C2=C(C1)Nc1cc([N+](=O)[O-])ccc1N(C(=O)CCl)C2c1ccc(OC(F)(F)F)cc1 (stereo unspecified) | 0.13 °C | 4.15 µM
16 | O=C1CCCC2=C1C(c1ccc(C(F)(F)F)cc1)N(C(=O)CCl)c1ccc([N+](=O)[O-])cc1N2 (stereo unspecified) | 6.6 °C | 1.02 µM
17 | O=C1CCCC2=C1C(C1CC1)N(C(=O)CCl)c1ccc([N+](=O)[O-])cc1N2 (stereo unspecified) | 4.77 °C | 2.55 µM
18 | CC1C2=C(CC(C)(C)CC2=O)Nc2cc([N+](=O)[O-])ccc2N1C(=O)CCl (stereo unspecified) | 1.32 °C | 23.3 µM
19 | CC1(C)CC(=O)C2=C(C1)Nc1cc([N+](=O)[O-])ccc1N(C(=O)CCl)C2c1ccc(C(F)(F)F)cc1 (stereo unspecified) | -0.54 °C | 3.73 µM

Row | SMILES | ΔTm [1] | IC50 [2]
20 | O=C1CCCC2=C1CN(C(=O)CCl)c1ccc([N+](=O)[O-])cc1N2 | 4.1 °C | 5.11 µM
21 | N#Cc1ccc2c(c1)NC1=C(C(=O)CCC1)C(c1ccc(C(F)(F)F)cc1)N2C(=O)CCl (stereo unspecified) | 6.02 °C | 1.84 µM
22 | O=C1CCCC2=C1C(c1ccccc1)N(C(=O)CCl)c1ccc([N+](=O)[O-])cc1N2 (stereo unspecified) | 5.71 °C | 1.67 µM
23 | CC1(C)CC(=O)C2=C(C1)Nc1cc([N+](=O)[O-])ccc1N(C(=O)CCl)C2C1CCCCC1 (stereo unspecified) | 4.64 °C | 5.26 µM
24 | CC1CC(=O)C2=C(C1)Nc1cc([N+](=O)[O-])ccc1N(C(=O)CCl)C2C1CCC1 (stereo unspecified) | 2.74 °C | 7.32 µM
25 | O=C1CCCC2=C1C(c1ccc(F)cc1F)N(C(=O)CCl)c1ccc([N+](=O)[O-])cc1N2 (stereo unspecified) | 2.95 °C | 4.09 µM
26 | CC1CC(=O)C2=C(C1)Nc1cc([N+](=O)[O-])ccc1N(C(=O)CCl)C2c1ccc(F)cc1F (stereo unspecified) | 3.25 °C | 6.21 µM
27 | CC1(C)CC(=O)C2=C(C1)Nc1cc([N+](=O)[O-])ccc1N(C(=O)CCl)C2C1CC1 (stereo unspecified) | 2.01 °C | 13.3 µM
28 | O=C1CCCC2=C1C(c1ccc(OC(F)(F)F)cc1)N(C(=O)CCl)c1ccc([N+](=O)[O-])cc1N2 (stereo unspecified) | 3.65 °C | 2.03 µM
29 | COc1ccc(C2C3=C(CC(C)(C)CC3=O)Nc3cc([N+](=O)[O-])ccc3N2C(=O)CCl)cc1 (stereo unspecified) | -2.76 °C | 4.52 µM
30 | CC1CC(=O)C2=C(C1)Nc1cc([N+](=O)[O-])ccc1N(C(=O)CCl)C2C1CCCC1 (stereo unspecified) | 3.01 °C | 5.15 µM
31 | CC1(C)CC(=O)C2=C(C1)Nc1cc([N+](=O)[O-])ccc1N(C(=O)CCl)C2c1ccccc1 (stereo unspecified) | 4.74 °C | 4.52 µM
32 | COC(=O)c1ccc2c(c1)NC1=C(C(=O)CCC1)C(c1ccc(C(F)(F)F)cc1)N2C(=O)CCl (stereo unspecified) | 8.45 °C | 0.18 µM
33 | Cc1ccc(C2C3=C(CCCC3=O)Nc3cc([N+](=O)[O-])ccc3N2C(=O)CCl)cc1 (stereo unspecified) | 4.44 °C | 2.35 µM
34 | CC1CC(=O)C2=C(C1)Nc1cc([N+](=O)[O-])ccc1N(C(=O)CCl)C2C1CC1 (stereo unspecified) | 4.66 °C | 9.06 µM
35 | CC1(C)CC(=O)C2=C(C1)Nc1cc([N+](=O)[O-])ccc1N(C(=O)CCl)C2c1ccc(OC(F)(F)F)cc1 (stereo unspecified) | -1.64 °C | 5.68 µM
36 | O=C1CCCC2=C1C(C1CCCC1)N(C(=O)CCl)c1ccc([N+](=O)[O-])cc1N2 (stereo unspecified) | 6.27 °C | 1.92 µM
37 | CC1(C)CC(=O)C2=C(C1)Nc1cc([N+](=O)[O-])ccc1N(C(=O)CCl)C2c1ccc(F)cc1F (stereo unspecified) | 2.94 °C | 9.55 µM
38 | CC1CC(=O)C2=C(C1)Nc1cc([N+](=O)[O-])ccc1N(C(=O)CCl)C2c1ccc(C(F)(F)F)cc1 (stereo unspecified) | 4.02 °C | 3.31 µM
